We go through 5 compounds from paper PMC5000626 (International Journal of Molecular Sciences, 2016).

SMILES strings stand for the structures. Where two headings read alike, the source gives them in different places.

One series concerns the target T1, hMATE1 (Homo sapiens, UniProt Q96FL8).
T1 sequence (Q96FL8 1-570): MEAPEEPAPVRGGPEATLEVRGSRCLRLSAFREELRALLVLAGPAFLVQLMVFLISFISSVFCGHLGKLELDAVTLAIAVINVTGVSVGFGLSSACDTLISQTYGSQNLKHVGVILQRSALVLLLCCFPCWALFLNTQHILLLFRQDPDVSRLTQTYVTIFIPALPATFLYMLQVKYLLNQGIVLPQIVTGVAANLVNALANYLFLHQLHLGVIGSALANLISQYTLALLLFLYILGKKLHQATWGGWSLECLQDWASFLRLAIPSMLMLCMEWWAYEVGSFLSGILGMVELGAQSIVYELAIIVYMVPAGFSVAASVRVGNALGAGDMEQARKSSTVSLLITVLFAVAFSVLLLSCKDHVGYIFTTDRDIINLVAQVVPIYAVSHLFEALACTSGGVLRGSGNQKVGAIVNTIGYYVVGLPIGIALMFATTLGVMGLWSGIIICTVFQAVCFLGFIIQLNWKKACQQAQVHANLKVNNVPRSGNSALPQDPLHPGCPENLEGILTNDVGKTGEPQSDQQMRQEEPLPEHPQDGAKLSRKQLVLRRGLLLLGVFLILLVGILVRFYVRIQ
Put plainly: [3H]dopamine uptake kinetics in HEK293 cells transiently expressing hMATE1. The series is classed as cell-based. Here is the method: (§1) For transient expression, HEK293 cells were seeded on 24-well (2 × 10^5 cells/well) poly-D-lysine-coated plates (BD Biocoat, Franklin Lakes, NJ, USA) and transfected with hMATE1, hMATE2-K and mMATE1 cDNA containing plasmid vectors and empty vectors (pcDNA3.1(+) for hMATE1 and hMATE2-K, pFLAG for mMATE1) by using the LipofectAMINE 2000 Reagent (Life Technologies Corporation), according to the manufacturer’s instructions. The cells were used for uptake experiments at 48 h after transfection, while the empty vector-expressing cells were used as control.
(§2) The cells were dissolved in 0.5 mL of 0.5 normality (N) sodium hydroxide (NaOH), and then, the radioactivity in 200 µL was determined using liquid scintillation counting following addition to 2 mL of Ultima Gold (PerkinElmer). The protein content of each NaOH solution was determined using a Bio-Rad Protein Assay Kit (Bio-Rad Laboratories, Hercules, CA, USA) by using bovine γ-globulin as a standard. The Km and Vmax values were calculated from the saturation curve using the Michaelis–Menten equation, V = Vmax[S]/(Km + [S]), with Kaleidagraph Version 4.00 (Synergy Software, Reading, PA, USA) after the nonspecific uptake values were subtracted.

The target in series [1] is T2, mMATE1 (Mus musculus, UniProt Q8K0H1).
T2 sequence (Q8K0H1 1-567): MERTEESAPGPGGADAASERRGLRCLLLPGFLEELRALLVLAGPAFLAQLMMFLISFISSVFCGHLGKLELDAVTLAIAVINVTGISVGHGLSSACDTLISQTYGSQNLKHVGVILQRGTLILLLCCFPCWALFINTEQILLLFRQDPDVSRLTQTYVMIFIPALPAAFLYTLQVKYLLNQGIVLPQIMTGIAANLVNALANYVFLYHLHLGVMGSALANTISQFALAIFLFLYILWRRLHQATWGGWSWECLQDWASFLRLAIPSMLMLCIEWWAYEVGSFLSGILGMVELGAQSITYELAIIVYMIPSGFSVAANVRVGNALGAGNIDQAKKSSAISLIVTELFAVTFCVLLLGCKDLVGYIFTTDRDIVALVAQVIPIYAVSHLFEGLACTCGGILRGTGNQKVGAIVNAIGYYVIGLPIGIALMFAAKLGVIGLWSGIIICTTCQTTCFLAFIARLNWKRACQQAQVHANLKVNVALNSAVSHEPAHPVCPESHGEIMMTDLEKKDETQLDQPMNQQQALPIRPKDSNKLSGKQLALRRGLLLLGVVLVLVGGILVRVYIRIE
The conditions noted are these: [3H]dopamine uptake, HEK293 cells expressing mMATE1. Here is the method: as §1, §2

Series [2] addresses T3, hMATE2-K (Homo sapiens, UniProt Q86VL8). Particulars: [3H]dopamine uptake, HEK293 cells expressing hMATE2-K. Here is the method:
as §1, §2

The test system of another series is LLC-PK1. Particulars: LLC-PK1 cells; cited from earlier work.
Series [3] deals with T3, hMATE2-K. The series can be described thus: cell-based. Here is the method:
as §1, §2

For series [4] the following is noted: cited from earlier work.
For series [5], the target named is T2, mMATE1. Put plainly: cell-based.
[6] abbreviates: patients with CML (imatinib also gastrointestinal stromal tumors), efficacy target for imatinib and nilotinib, safety limit for dasatinib.

T3 sequence (Q86VL8 1-566 isoform Q86VL8-3): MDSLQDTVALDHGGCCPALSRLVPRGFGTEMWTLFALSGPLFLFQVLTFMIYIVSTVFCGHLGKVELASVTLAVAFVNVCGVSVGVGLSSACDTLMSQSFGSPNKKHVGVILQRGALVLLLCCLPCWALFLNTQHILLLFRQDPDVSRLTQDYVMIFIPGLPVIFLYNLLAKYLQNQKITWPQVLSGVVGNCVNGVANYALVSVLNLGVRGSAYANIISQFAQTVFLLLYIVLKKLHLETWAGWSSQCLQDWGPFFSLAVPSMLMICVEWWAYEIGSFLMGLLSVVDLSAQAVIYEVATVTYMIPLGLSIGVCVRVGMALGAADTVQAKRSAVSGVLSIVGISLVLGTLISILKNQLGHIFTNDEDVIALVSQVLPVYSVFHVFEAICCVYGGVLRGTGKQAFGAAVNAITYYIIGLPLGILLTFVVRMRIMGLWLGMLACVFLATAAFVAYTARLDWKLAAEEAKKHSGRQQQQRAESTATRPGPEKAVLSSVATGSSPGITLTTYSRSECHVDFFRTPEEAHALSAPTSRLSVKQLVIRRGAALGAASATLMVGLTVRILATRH

Regarding `NCCc1ccc(O)c(O)c1` [dopamine], the Km on hMATE1 ([3H]dopamine uptake at 1 min, HEK293 cells expressing hMATE1, mean ± S.E., n=3) stood at 560 ± 180 µM. Moreover, the Vmax on hMATE1 ([3H]dopamine uptake, HEK293 cells expressing hMATE1) was 3.71 ± 0.15 nmol·mg·protein^−1·min^−1; on mMATE1 [1], 8.73 ± 0.08 nmol·mg·protein^−1·min^−1; on hMATE2-K [2] it was 7.69 ± 1.12 nmol·mg·protein^−1·min^−1.
`COC(=O)[C@H]1[C@@H](OC(=O)c2ccccc2)C[C@@H]2CC[C@H]1N2C` [cocaine]: the “inhibition of outward transfer of synthesized dopamine” value in the series on LLC-PK1 is reported as “failed to inhibit”.
Regarding `Cc1cn(-c2cc(NC(=O)c3ccc(C)c(Nc4nccc(-c5cccnc5)n4)c3)cc(C(F)(F)F)c2)cn1` [Nilotinib, nilotinib], the IC50 on hMATE2-K [3] and on mMATE1 [5] was over 100 µM each time. In addition, the “plasma trough concentration (Ctrough), clinical target” value was over 761 ng/mL in series [4] (setting [6]) and over 1400 nM in series [4] (same targets in molar units).
Consider `Cc1nc(Nc2ncc(C(=O)Nc3c(C)cccc3Cl)s2)cc(N2CCN(CCO)CC2)n1` [Dasatinib, dasatinib], for which the “plasma trough concentration (Ctrough), clinical target” value in series [4] (setting [6]) is at most 2.5 ng/mL; in series [4] (same targets in molar units), at most 5 nM. Moreover, at mMATE1 [5], the IC50 was 106 ± 7 µM.
On to `Fc1ccc(C(OCCN2CCN(CCCc3ccccc3)CC2)c2ccc(F)cc2)cc1` [GBR-12909], for which, in the series with LLC-PK1, the “inhibition of outward transfer of synthesized dopamine” value is reported as “failed to inhibit”.

Broadly, the Km is the concentration of substrate that gives half-maximal velocity. Usually IC50 stands for the concentration that gives 50% inhibition.
